Results as given in BindingDB's records for doi:10.1074/jbc.271.28.16435 (Merck Research Laboratories, 1996).

Experiments:
[1] = target: T1, Neuropeptide Y receptor type 1 (Mus musculus, UniProt Q04573)
T1 sequence (Q04573 whole entry): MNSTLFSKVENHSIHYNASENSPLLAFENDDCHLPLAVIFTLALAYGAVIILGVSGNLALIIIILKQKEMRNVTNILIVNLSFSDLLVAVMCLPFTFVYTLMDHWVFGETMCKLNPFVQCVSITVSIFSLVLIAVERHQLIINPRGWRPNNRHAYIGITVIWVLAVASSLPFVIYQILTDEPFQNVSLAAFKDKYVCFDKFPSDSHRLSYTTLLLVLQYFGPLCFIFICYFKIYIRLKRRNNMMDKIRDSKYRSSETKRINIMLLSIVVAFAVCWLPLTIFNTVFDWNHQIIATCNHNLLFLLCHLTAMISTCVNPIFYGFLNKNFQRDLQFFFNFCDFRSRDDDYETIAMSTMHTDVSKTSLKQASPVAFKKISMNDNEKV

[2] = target: T2, Neuropeptide Y receptor type 5 (Mus musculus, UniProt O70342)
T2 sequence (O70342 whole entry): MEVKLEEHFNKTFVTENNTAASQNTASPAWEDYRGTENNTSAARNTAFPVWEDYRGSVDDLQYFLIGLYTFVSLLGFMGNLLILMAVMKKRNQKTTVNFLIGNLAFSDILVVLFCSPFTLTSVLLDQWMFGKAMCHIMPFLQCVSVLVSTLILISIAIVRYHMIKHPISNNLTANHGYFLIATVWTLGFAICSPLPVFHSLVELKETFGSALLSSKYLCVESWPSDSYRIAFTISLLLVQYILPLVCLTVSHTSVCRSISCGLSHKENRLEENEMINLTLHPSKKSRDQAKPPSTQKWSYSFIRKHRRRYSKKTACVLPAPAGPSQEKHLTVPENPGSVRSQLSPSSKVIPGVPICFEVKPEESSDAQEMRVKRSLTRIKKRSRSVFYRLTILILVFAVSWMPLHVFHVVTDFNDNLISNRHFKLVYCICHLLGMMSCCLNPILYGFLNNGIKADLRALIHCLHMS

SMILES: CC[C@H](C)[C@H](NC(=O)[C@H](Cc1ccc(O)cc1)NC(=O)[C@H](CCCNC(=N)N)NC(=O)[C@H](CCCNC(=N)N)NC(=O)[C@H](CC(C)C)NC(=O)[C@H](CC(=O)O)NC(=O)[C@H](C)NC(=O)[C@H](C)NC(=O)[C@H](Cc1ccc(O)cc1)NC(=O)[C@H](CCC(N)=O)NC(=O)[C@H](C)NC(=O)[C@H](CCSC)NC(=O)[C@H](CCC(N)=O)NC(=O)[C@H](CCC(=O)O)NC(=O)[C@@H]1CCCN1C(=O)[C@@H](NC(=O)[C@H](C)NC(=O)[C@H](CC(N)=O)NC(=O)[C@H](CC(=O)O)NC(=O)CNC(=O)[C@@H]1CCCN1C(=O)[C@H](Cc1ccc(O)cc1)NC(=O)[C@@H](NC(=O)[C@@H]1CCCN1C(=O)[C@H](CCC(=O)O)NC(=O)[C@H](CC(C)C)NC(=O)[C@@H]1CCCN1C(=O)[C@H](C)N)C(C)C)[C@@H](C)O)C(=O)N[C@@H](CC(N)=O)C(=O)N[C@@H](CCSC)C(=O)N[C@@H](CC(C)C)C(=O)N[C@H](C(=O)N[C@@H](CCCNC(=N)N)C(=O)N1CCC[C@H]1C(=O)N[C@@H](CCCNC(=N)N)C(=O)N[C@@H](Cc1ccc(O)cc1)C(N)=O)[C@@H](C)O [CAS_59763-91-6]
- Ki [1]: 122 nM
- Ki [2]: 1000 nM
